Results: DBAASP
In brackets after ≈: the same amount, converted by molar mass.

How the values were obtained:
Experiment in all cases: ≥ marks a high value that may be exact or a test limit, other limits are often not marked, values filed in µg/mL are converted to µM
[1] = system: Acinetobacter baumannii ATCC 19606
[2] = system: Bacillus subtilis ATCC 6051
[3] = system: Escherichia coli D31
[4] = system: Pseudomonas aeruginosa PAO1
[5] = system: Staphylococcus aureus ATCC 27660
[6] = system: Candida albicans ATCC 24433
[7] = system: Escherichia coli ATCC 25922
[8] = system: Staphylococcus epidermidis ATCC 12228
[9] = system: Candida albicans NCYC 1467
[10] = system: Enterococcus faecalis NCTC 12697
[11] = system: Escherichia coli NCTC 10418
[12] = system: Klebsiella pneumoniae ATCC 43816
[13] = system: Staphylococcus aureus NCTC 10788
[14] = system: Staphylococcus aureus NCTC 12493
[15] = system: Acinetobacter baumannii ATCC 15308
[16] = system: Citrobacter sp.
[17] = system: Enterobacter cloacae
[18] = system: Klebsiella pneumoniae
[19] = system: Pseudomonas aeruginosa ATCC 15442
[20] = system: Staphylococcus aureus ATCC 25923
[21] = system: Staphylococcus aureus
[22] = system: Streptococcus pneumoniae
[23] = system: Pseudomonas aeruginosa ATCC 27853

MIC [7] [µM] | MIC [9] [µM] | MIC [10] [µM] | MIC [11] [µM] | MIC [12] [µM] | MIC [13] [µM] | MIC [14] [µM] | MIC [15] [µM] | MIC [16] [µM] | MIC [17] [µM] | MIC [18] [µM] | MIC [19] [µM] | MIC [20] [µM] | MIC [21] [µM] | MIC [22] [µM] | SMILES | also measured
– | – | – | – | – | – | – | – | – | – | – | – | – | – | – | CC(C)C[C@H](NC(=O)[C@H](C)N)C(=O)N[C@@H](Cc1c[nH]c2ccccc12)C(=O)N[C@@H](CCCN=C(N)N)C(=O)N[C@@H](CCCN=C(N)N)C(=O)N[C@@H](CC(C)C)C(=O)N[C@@H](CC(C)C)C(=O)N[C@@H](CCCN=C(N)N)C(=O)N[C@@H](CCCN=C(N)N)C(=O)N[C@@H](CC(C)C)C(=O)N[C@@H](CC(C)C)C(=O)N[C@@H](CCCN=C(N)N)C(=O)N[C@@H](CO)C(=O)N[C@@H](C)C(=O)N[C@@H](CCCN=C(N)N)C(=O)N[C@@H](CCCN=C(N)N)C(=O)N[C@@H](CC(C)C)C(=O)NCC(N)=O [ALWRRLLRRLLRSARRLG] | MIC [1]: 3.75 µM (≈ 8.48 µg/mL); MIC [2]: 1.88 µM (≈ 4.24 µg/mL); MIC [3]: 1.88 µM (≈ 4.24 µg/mL); MIC [4]: 7.5 µM (≈ 17 µg/mL); MIC [5]: 3.75 µM (≈ 8.48 µg/mL)
> 100 | – | – | – | – | – | – | – | – | – | – | – | – | – | – | CC[C@H](C)[C@H](NC(=O)CNC(=O)[C@@H](NC(=O)[C@H](C)NC(=O)[C@@H](NC(=O)[C@H](CCCCN)NC(=O)[C@@H]1CCCN1C(=O)[C@@H](NC(=O)[C@H](CCSC)NC(=O)[C@H](CO)NC(=O)[C@H](Cc1ccccc1)NC(=O)[C@@H](N)Cc1ccccc1)[C@@H](C)CC)[C@@H](C)CC)[C@@H](C)O)C(=O)N[C@@H](C)C(=O)N[C@@H](CO)C(=O)N[C@@H](CC(C)C)C(=O)N[C@H](C(=O)N[C@@H](CCCCN)C(=O)N[C@@H](CC(=O)O)C(=O)N[C@@H](CC(C)C)C(N)=O)C(C)C [FFSMIPKIATGIASLVKDL] | MIC [6]: ≥ 100 µM; MIC [8]: > 100 µM
– | ≥ 512 | ≥ 512 | ≥ 512 | ≥ 512 | ≥ 512 | ≥ 512 | – | – | – | – | – | – | – | – | CC[C@H](C)[C@H](NC(=O)[C@H](C)NC(=O)[C@H](C)NC(=O)[C@@H]1CCCN1C(=O)[C@@H](NC(=O)[C@H](CC(C)C)NC(=O)[C@H](CCCCN)NC(=O)CNC(=O)[C@H](C)NC(=O)[C@@H](NC(=O)[C@H](CCCCN)NC(=O)[C@H](CC(C)C)NC(=O)[C@@H](NC(=O)[C@H](C)NC(=O)CNC(=O)[C@H](CC(C)C)NC(=O)[C@@H](N)Cc1ccccc1)C(C)C)C(C)C)C(C)C)C(=O)O [FLGAVLKVAGKLVPAAI] | –
> 114 | – | – | – | – | – | – | ≥ 114 | ≥ 114 | ≥ 114 | > 114 | ≥ 114 | > 114 | > 114 | ≥ 114 | CC[C@H](C)[C@H](NC(=O)[C@H](CCSC)NC(=O)[C@H](C)NC(=O)[C@@H]1CCCN1C(=O)[C@@H]1CCCN1C(=O)[C@H](CCCN=C(N)N)NC(=O)[C@H](CCCCN)NC(=O)[C@@H](NC(=O)[C@H](CC(C)C)NC(=O)CNC(=O)CNC(=O)[C@H](CC(C)C)NC(=O)[C@@H](N)Cc1ccccc1)[C@@H](C)CC)C(=O)N[C@H]1CSSC[C@@H](C(=O)O)NC(=O)[C@H](CCCCN)NC(=O)[C@H](CCCCN)NC(=O)[C@H](CCCN=C(N)N)NC(=O)[C@H](C(C)C)NC(=O)[C@H](C)NC1=O [FLGGLIKRPPAMICAVRKKC] | –
3.91 (≈ 7.81 µg/mL) | – | – | – | – | – | – | 31.3 (≈ 62.5 µg/mL) | ≥ 125 | ≥ 125 | > 125 | 15.6 (≈ 31.2 µg/mL) | 3.91 (≈ 7.81 µg/mL) | 3.91 (≈ 7.81 µg/mL) | 3.91 (≈ 7.81 µg/mL) | CC[C@H](C)[C@H](NC(=O)[C@H](CC(C)C)NC(=O)CNC(=O)CNC(=O)[C@H](CC(C)C)NC(=O)[C@@H](N)Cc1ccccc1)C(=O)N[C@@H](CCCCN)C(=O)N[C@@H](Cc1c[nH]c2ccccc12)C(=O)N1CCC[C@H]1C(=O)N[C@@H](Cc1c[nH]c2ccccc12)C(=O)N[C@@H](Cc1c[nH]c2ccccc12)C(=O)N1CCC[C@H]1C(=O)N[C@@H](Cc1c[nH]c2ccccc12)C(=O)N[C@@H](CCCN=C(N)N)C(=O)N[C@@H](CCCN=C(N)N)C(N)=O [FLGGLIKWPWWPWRR] | –
50 (≈ 99.3 µg/mL) | – | – | – | – | – | – | – | – | – | – | – | – | – | – | CC[C@H](C)[C@H](NC(=O)CNC(=O)[C@@H](NC(=O)[C@H](C)NC(=O)[C@@H](NC(=O)[C@H](Cc1cnc[nH]1)NC(=O)[C@@H]1CCCN1C(=O)[C@@H](NC(=O)[C@H](CC(C)C)NC(=O)[C@H](CO)NC(=O)[C@H](CC(C)C)NC(=O)[C@@H](N)Cc1ccccc1)[C@@H](C)CC)[C@@H](C)CC)[C@@H](C)O)C(=O)N[C@@H](C)C(=O)N[C@@H](C)C(=O)N[C@@H](CC(C)C)C(=O)N[C@@H](C)C(=O)N[C@@H](CCCCN)C(=O)N[C@@H](Cc1cnc[nH]1)C(=O)N[C@@H](CC(C)C)C(N)=O [FLSLIPHIATGIAALAKHL] | MIC [6]: ≥ 100 µM; MIC [8]: 12.5 µM (≈ 24.8 µg/mL)
– | 16 (≈ 41.1 µg/mL) | 8 (≈ 20.5 µg/mL) | 8 (≈ 20.5 µg/mL) | ≥ 128 | 8 (≈ 20.5 µg/mL) | 16 (≈ 41.1 µg/mL) | – | – | – | – | – | – | – | – | CC(C)C[C@H](NC(=O)[C@H](CCC(N)=O)NC(=O)[C@H](CCC(N)=O)NC(=O)[C@H](C)NC(=O)CNC(=O)[C@H](C)NC(=O)[C@H](CCCCN)NC(=O)CNC(=O)[C@@H](NC(=O)[C@H](CCC(N)=O)NC(=O)[C@H](CCCCN)NC(=O)[C@H](C)NC(=O)[C@H](CC(C)C)NC(=O)[C@H](Cc1ccc(O)cc1)NC(=O)[C@H](CCCCN)NC(=O)[C@H](C)NC(=O)CNC(=O)[C@H](C)NC(=O)[C@H](CCCCN)NC(=O)[C@H](Cc1ccccc1)NC(=O)[C@H](CC(C)C)NC(=O)[C@H](CO)NC(=O)[C@H](CO)NC(=O)[C@H](Cc1ccccc1)NC(=O)CN)C(C)C)C(N)=O [GFSSLFKAGAKYLAKQVGKAGAQQL] | MIC [23]: 32 µM (≈ 82.2 µg/mL)
– | 16 (≈ 30.4 µg/mL) | ≥ 256 | 16 (≈ 30.4 µg/mL) | ≥ 32 | 8 (≈ 15.2 µg/mL) | 8 (≈ 15.2 µg/mL) | – | – | – | – | – | – | – | – | CC[C@H](C)[C@@H]1NC(=O)[C@H](C)NC(=O)[C@@H](NC(=O)[C@H](Cc2ccccc2)NC(=O)[C@H](Cc2c[nH]c3ccccc23)NC(=O)[C@H](CCCCN)NC(=O)[C@H](Cc2c[nH]c3ccccc23)NC(=O)[C@@H]2CCCN2C(=O)[C@H](CC(C)C)NC(=O)[C@H](Cc2ccccc2)NC(=O)[C@@H](N)CCCCN)CSSC[C@@H](C(=O)O)NC(=O)[C@H](CCCCN)NC(=O)[C@H](CCCCN)NC(=O)[C@H]([C@@H](C)O)NC1=O [KFLPWKWFCAITKKC] | MIC [23]: 64 µM (≈ 121 µg/mL)
16.1 (≈ 31.2 µg/mL) | – | – | – | – | – | – | ≥ 129 | ≥ 129 | ≥ 129 | > 129 | 16.1 (≈ 31.2 µg/mL) | 16.1 (≈ 31.2 µg/mL) | 16.1 (≈ 31.2 µg/mL) | 16.1 (≈ 31.2 µg/mL) | CC(C)C[C@H](NC(=O)[C@@H](N)CC(C)C)C(=O)N1CCC[C@H]1C(=O)N[C@@H](Cc1c[nH]c2ccccc12)C(=O)N[C@@H](CCCCN)C(=O)N[C@@H](Cc1c[nH]c2ccccc12)C(=O)N1CCC[C@H]1C(=O)N[C@@H](Cc1c[nH]c2ccccc12)C(=O)N[C@@H](Cc1c[nH]c2ccccc12)C(=O)N[C@@H](CCCCN)C(=O)N[C@@H](Cc1c[nH]c2ccccc12)C(=O)N[C@@H](CCCN=C(N)N)C(=O)N[C@@H](CCCN=C(N)N)C(N)=O [LLPWKWPWWKWRR] | –
